PMC10447463, “Data-mining unveils structure–property–activity correlation of viral infectivity enhancing self-assembling peptides” (Nature Communications, 2023)
Read-outs that look alike come from different tables or passages of the source.

Key:
[1] = Turbidity, derived count rate of scattered light; assay type: physicochemical; conditions: for Count Rate / kcps: derived count rate of scattered light at 633 nm, 173°, from zeta-potential measurement, 0.1 mg/mL in 1 mM KCl after 1 d at 1 mg/mL in PBS, turbidity / microscopic aggregation, mean of triplicate
Procedure, shortened: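 Samples: 1 mg/mL in PBS pH 7.4 (from DMSO), 1 d at RT, then diluted in 1 mM KCl immediately before measurement. Triplicates, two independent runs averaged.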

[2] = assay type: physicochemical; conditions: for ThT Cat. / ThT-Fluorescence (categorical): ThT-active if fluorescence at least twice the control
Procedure, shortened: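 Preformed peptide fibrils (1 mg/mL) mixed with 50 µM ThT in PBS, 15 min at RT, fluorescence ex 440/em 488 nm versus PBS blank, triplicates. Zeta potential: peptides at 1 mg/mL in PBS pH 7.4, aged 1 d at RT, diluted in 1 mM KCl, Smoluchowski from electrophoretic mobility.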

[3] = Log10 of derived count rate of scattered light (turbidity)
[4] = turbidity, Log10 of derived count rate of scattered light, Figure 3A source data
[5] = turbidity, log10 of derived count rate of scattered light
[6] = ThT fluorescence category, 1 if Rel. ThT >2
[7] = logarithm of count rate in kcps
[8] = log10 of derived count rate of scattered light (turbidity)

Substance | Log10 Count Rate [1, 3] | Count Rate / kcps [1] | Log10 Count Rate [1, 4] | Log10 Count Rate [1, 5] | Tht category (> 2 to blank = +) ([2]; Fig S10 panel D) | ThT Cat, ([2]; ThT category, 1 if Rel. ThT >2) | ThT Cat. [2, 6] | ThT Cat. / ThT-Fluorescence (categorical) [2] | ThT Cat. ([2]; Fig S10 panel E) | ThT Cat. ([2]; ThT category, 1 if Rel. ThT >2) | Log10 Count Rate [1, 7] | Tht category (> 2 to blank = +) ([2]; FigS12 panel A) | ThT Cat, ([2]; FigS12 panel B) | Log10 Count Rate [1, 8]
KIKIQINMW | 2.38 | 240 kcps | 2.38 | 2.38 | 1 (ThT. Cat is 1, if Rel. ThT >2) | 1 (ThT. Cat is 1, if Rel. ThT >2) | 1 (ThT. Cat is 1, if Rel. ThT >2) | 1 (ThT. Cat is 1, if Rel. ThT >2) |  |  |  |  |  | 
KIKIQINMWA | 3.042 | 1101 kcps | 3.042 | 3.042 | 0 (ThT-inactive (N-Fold <2)) | 0 (ThT-inactive (N-Fold <2)) | 0 (ThT-inactive (N-Fold <2)) | 0 (ThT-inactive (N-Fold <2)) |  |  |  |  |  | 
KIKIQINMWQ | 3.342 | 2196 kcps | 3.342 | 3.342 | 1 (ThT. Cat is 1, if Rel. ThT >2) | 1 (ThT. Cat is 1, if Rel. ThT >2) |  | 1 (ThT. Cat is 1, if Rel. ThT >2) | 1 (ThT. Cat is 1, if Rel. ThT >2) | 1 (ThT. Cat is 1, if Rel. ThT >2) |  |  |  | 
KIKQIIN | 1.806 | 64 kcps | 1.806 | 1.806 | 0 (ThT-inactive (N-Fold <2)) | 0 (ThT-inactive (N-Fold <2)) | 0 (ThT-inactive (N-Fold <2)) | 0 (ThT-inactive (N-Fold <2)) |  |  | 1.806 | 0 (ThT-inactive (N-Fold <2)) | 0 (ThT-inactive (N-Fold <2)) | 
KIKQIINM | 3.395 | 2481 kcps | 3.395 | 3.395 | 0 (ThT-inactive (N-Fold <2)) | 0 (ThT-inactive (N-Fold <2)) | 0 (ThT-inactive (N-Fold <2)) | 0 (ThT-inactive (N-Fold <2)) | 0 (ThT-inactive (N-Fold <2)) |  |  |  |  | 
KIKQIINMWQ | 2.789 | 616 kcps | 2.789 | 2.789 | 1 (ThT. Cat is 1, if Rel. ThT >2) | 1 (ThT. Cat is 1, if Rel. ThT >2) |  | 1 (ThT. Cat is 1, if Rel. ThT >2) | 1 (ThT. Cat is 1, if Rel. ThT >2) | 1 (ThT. Cat is 1, if Rel. ThT >2) | 2.789 |  |  | 
KIRGKFEKED | 2.331 | 214 kcps | 2.331 | 2.331 | 1 (ThT. Cat is 1, if Rel. ThT >2) | 1 (ThT. Cat is 1, if Rel. ThT >2) |  | 1 (ThT. Cat is 1, if Rel. ThT >2) |  | 1 (ThT. Cat is 1, if Rel. ThT >2) |  | 1 (ThT. Cat is 1, if Rel. ThT >2) | 1 (ThT. Cat is 1, if Rel. ThT >2) | 
KKFQKKFQ | 1.867 | 74 kcps | 1.867 | 1.867 | 0 (ThT-inactive (N-Fold <2)) | 0 (ThT-inactive (N-Fold <2)) |  | 0 (ThT-inactive (N-Fold <2)) |  | 0 (ThT-inactive (N-Fold <2)) |  | 0 (ThT-inactive (N-Fold <2)) | 0 (ThT-inactive (N-Fold <2)) | 
KNDKND | 1.719 | 52 kcps | 1.719 | 1.719 | 0 (ThT-inactive (N-Fold <2)) | 0 (ThT-inactive (N-Fold <2)) |  | 0 (ThT-inactive (N-Fold <2)) |  | 0 (ThT-inactive (N-Fold <2)) |  | 0 (ThT-inactive (N-Fold <2)) | 0 (ThT-inactive (N-Fold <2)) | 
KNERIKNERI | 2.508 | 322 kcps | 2.508 | 2.508 | 0 (ThT-inactive (N-Fold <2)) | 0 (ThT-inactive (N-Fold <2)) |  | 0 (ThT-inactive (N-Fold <2)) | 0 (ThT-inactive (N-Fold <2)) | 0 (ThT-inactive (N-Fold <2)) |  | 0 (ThT-inactive (N-Fold <2)) | 0 (ThT-inactive (N-Fold <2)) | 
KVKGVGK | 1.709 | 51 kcps | 1.709 | 1.709 | 0 (ThT-inactive (N-Fold <2)) | 0 (ThT-inactive (N-Fold <2)) |  | 0 (ThT-inactive (N-Fold <2)) |  | 0 (ThT-inactive (N-Fold <2)) |  | 0 (ThT-inactive (N-Fold <2)) | 0 (ThT-inactive (N-Fold <2)) | 
KVKVKVQV | 1.975 | 94 kcps | 1.975 | 1.975 | 1 (ThT. Cat is 1, if Rel. ThT >2) | 1 (ThT. Cat is 1, if Rel. ThT >2) |  | 1 (ThT. Cat is 1, if Rel. ThT >2) |  | 1 (ThT. Cat is 1, if Rel. ThT >2) |  | 1 (ThT. Cat is 1, if Rel. ThT >2) | 1 (ThT. Cat is 1, if Rel. ThT >2) | 
KWKWQW | 3.189 | 1545 kcps | 3.189 |  | 0 (ThT-inactive (N-Fold <2)) | 0 (ThT-inactive (N-Fold <2)) | 0 (ThT-inactive (N-Fold <2)) | 0 (ThT-inactive (N-Fold <2)) |  |  | 3.189 | 0 (ThT-inactive (N-Fold <2)) | 0 (ThT-inactive (N-Fold <2)) | 3.189
KYKGAIIGNIK | 1.644 | 44 kcps | 1.644 | 1.644 | 0 (ThT-inactive (N-Fold <2)) | 0 (ThT-inactive (N-Fold <2)) |  | 0 (ThT-inactive (N-Fold <2)) |  | 0 (ThT-inactive (N-Fold <2)) |  | 0 (ThT-inactive (N-Fold <2)) | 0 (ThT-inactive (N-Fold <2)) | 
KYKYQY | 1.499 | 32 kcps | 1.499 |  | 1 (ThT. Cat is 1, if Rel. ThT >2) | 1 (ThT. Cat is 1, if Rel. ThT >2) | 1 (ThT. Cat is 1, if Rel. ThT >2) | 1 (ThT. Cat is 1, if Rel. ThT >2) |  |  |  | 1 (ThT. Cat is 1, if Rel. ThT >2) | 1 (ThT. Cat is 1, if Rel. ThT >2) | 1.499
